From patent US6342494B1, “Carbapenem compounds, use thereof, and intermediate compounds of the same” (Kyoto Pharmaceutical Industries, Ltd., priority 1997, dated 2002)

Columns and labels:
[1] = dogs, 20 mg/kg oral, measured as hydrolyzed carbapenem compound (A)
Procedure: The compound of the present invention (compound of Example 6, 20 mg/kg) was orally administered to dogs (3 per group) and urinary hydrolyzed carbapenem compound (A) concentration at 0-3, 3-6 and 6-24 hours later was measured by a paper disc method using test bacteria Escherichia coli NIHJ and nutrient agar medium (Difco). The urinary recovery percentage was determined.

[2] = dogs, 20 mg/kg oral, measured as hydrolyzed carbapenem compound (A); remark: listed apart in the source
Procedure: The compound of the present invention (compound of Example 6, 20 mglkg) was orally administered to dogs (3 per group) and plasma hydrolyzed carbapenem compound (A) concentration at 0.25, 0.5, 1.0, 1.5, 2.0, 3.0, 4.0 and 6.0 hours later was measured by a paper disc method using test bacteria Escherichia coli NIHJ and nutrient agar medium (Difco).

**Q.** With `Cc1oc(=O)oc1CN1C[C@@H](SC2=C(C(=O)OCOC(=O)C(C)(C)C)N3C(=O)[C@H]([C@@H](C)O)[C@H]3[C@H]2C)C[C@H]1C(=O)N(C)C.Cl` [Example 6, Pivaloyloxymethyl (1R,5S,6S)-2-{(3S,5S)-[5-N,N-dimethylaminocarbonyl-1-(5-methyl-2-oxo-1,3-dioxolen-4-yl)methyl]pyrrolidin-3-ylthio}-6-[(1R)-1-hydroxyethyl]-1-methylcarbapen-2-em-3-carboxylate hydrochloride] as the compound, how does the “urinary recovery (%) 0-3 hr” value ([1]; 0-3 hr) read?
**A.** 10.3%

**Q.** And the “urinary recovery (%) 0-24 hr” value ([1]; 0-24 hr)?
**A.** 13.0%

**Q.** What about the “urinary recovery (%) 3-6 hr” value ([1]; 3-6 hr) of the same compound?
**A.** 2.4%

**Q.** What about the “urinary recovery (%) 6-24 hr” value ([1]; 6-24 hr) of the same compound?
**A.** 0.3%

**Q.** What about the “concentration in plasma (μg/ml) 0.25 hr” value ([2]; 0.25 hr) of the same compound?
**A.** 5.06 µg/mL

**Q.** What about the “concentration in plasma (μg/ml) 0.5 hr” value ([2]; 0.5 hr) of the same compound?
**A.** 6.56 µg/mL

**Q.** And the “concentration in plasma (μg/ml) 1.0 hr” value ([2]; 1.0 hr)?
**A.** 7.60 µg/mL

**Q.** What about the “concentration in plasma (μg/ml) 1.5 hr” value ([2]; 1.5 hr) of the same compound?
**A.** 7.67 µg/mL

**Q.** And the “concentration in plasma (μg/ml) 2.0 hr” value ([2]; 2.0 hr)?
**A.** 5.92 µg/mL

**Q.** And the “concentration in plasma (μg/ml) 3.0 hr” value ([2]; 3.0 hr)?
**A.** 3.68 µg/mL

**Q.** What about the “concentration in plasma (μg/ml) 4.0 hr” value ([2]; 4.0 hr) of the same compound?
**A.** 1.92 µg/mL

**Q.** What about the “concentration in plasma (μg/ml) 6.0 hr” value ([2]; 6.0 hr) of the same compound?
**A.** 0.43 µg/mL
